≈ marks a conversion by molar mass, not a printed value.
Experiment: solubility in water of hydroxysulfides (1 g per ... mL H2O)
Format: physicochemical
Details: mL H2O per 1 g hydroxysulfide

Row | SMILES | solubility in water 1 g per ... mL H2O [mL]
1 | CC(C)CCSCCOCCOCCO [i-AmSCH2 CH2 OCH2 CH2 OCH2 CH2 OH, 2-2-2-(isoamylthio)ethoxy!ethoxy!ethanol] | 100
2 | CC(C)CCSCCOCCO [i-AmSCH2 CH2 OCH2 CH2 OH, 2-2-(isoamylthio)ethoxy!ethanol] | < 100
3 | CC(C)CCSCCO [i-AmSCH2 CH2 OH, 2-(isoamylthio)ethanol] | < 100

Same assay, conditions: water

Row | SMILES | solubility in water 1 g per ... mL H2O (in words)
4 | CCSCCOCCOCCO [Et--SCH2 CH2 OCH2 CH2 OCH2 CH2 OH, 2-2-2-(ethylthio)ethoxy!ethoxy!ethanol] | miscible
5 | CCSCCOCCO [EtSCH2 CH2 OCH2 CH2 OH, 2-2-(ethylthio)ethoxy!ethanol] | miscible
6 | COCCSCCO [H3 COCH2 CH2 SCH2 CH2 OH, 2-(2-methoxyethylthio)ethanol] | miscible
7 | CC(C)(C)SCCOCCOCCO [t-BuSCH2 CH2 OCH2 CH2 OCH2 CH2 OH, 2-2-2-(tert-butylthio)ethoxy!ethoxy!ethanol] | miscible

Same assay, conditions: water; mL H2O per 1 g hydroxysulfide

Row | SMILES | solubility [mg/mL]
8 | CC(C)(C)SCCOCCO [t-BuSCH2 CH2 OCH2 CH2 OH, 2-2-(tert-butylthio)ethoxy!ethanol] | 66.7 (≈ 374 mM)
9 | CC(C)(C)SCCO [t-BuSCH2 CH2 OH, 2-(tert-butylthio)ethanol] | 20 (≈ 149 mM)

Experiment: active hydride analysis of borane adducts ([BH3], by hydrolysis and hydrogen evolved)
Format: physicochemical
Details: estimated by hydrolysis in water:glycerol:THF 1:1:1 and measuring hydrogen evolved
Description: Alternatively, borate esters were prepared from the reaction of borane-tetrahydrofuran with hydroxysulfide in molar ratio 1:3. Quantitative borate ester formation was confirmed by measuring the hydrogen evolved. Warming of the reaction mixture (60°-65° C.) is necessary to drive the reaction to completion. Generally speaking, the novel compounds of this invention are conveniently prepared in a straight-forward procedure by passing diborane into a neat borate ester at 0° C. in a bubbler provided with a stirrer. Excess diborane not absorbed by the borate ester is absorbed in a down-stream bubbler containing tetrahydrofuran over mercury and cooled in ice water. A mercury bubbler is connected to the exit. Diborane is passed into the ester until the concentration of excess borane in THF reaches approximately 1M. The borane-borate adduct is stirred overnight at room temperature prior to disconnecting the bubblers and analyzed for active hydride following the procedure described by Brown, H. C., Organic Syntheses via Boranes, J. Wiley: New York, 1975, p. 191, using a 2M hydrochloric acid-glycerol-water(2:1:1) hydrolysis solution.
A 100 ml one-neck, round-bottom flask equipped with a septum inlet, magnetic stirring bar and an adapter with a stopcock was charged with boron trifluoride diglyme (20 mmol). A 2M solution of sodium borohydride in triglyme (7.5 ml, 15 mmol) was added dropwise by means of a hypodermic syringe. Generation of diborane is smooth and the reaction is not exothermic. Generated diborane was passed through a bubbler containing sodium borohydride (0.1 g) in diglyme (5 ml) and a trap cooled to -78° C. was absorbed in neat 2-(tert-butylthio)ethanol (7.94 g, 60 mmol) at room temperature. After the addition was completed, the solution of borate was stirred at 50° C. for 15 min under a slow stream of nitrogen to produce the borate ester tris 2-(tert-butylthio)ethyl borate at room temperature. Escaped diborane was absorbed in the following bubbler containing tetrahydrofuran (10 ml) over mercury and cooled in ice water. A mercury bubbler was connected to the exit. Diborane was passed into the solution until the concentration of borane in the THF reached approximately 1M. The borane adduct, a colorless liquid, was analyzed for active hydride by a standard procedure using a water:glycerol:THF 1:1:1 hydrolyzing mixture. Concentration 6.4M, ^11 B NMR δ -26.03.
^b Estimated by hydrolysis in water: glycerol: THF 1:1:1 and measurin

Row | SMILES | [BH3] [M]
10 | [BH3-][S+](CCOB(OCC[S+]([BH3-])C(C)(C)C)OCC[S+]([BH3-])C(C)(C)C)C(C)(C)C (stereo not drawn) [9a, Tris 2-(tert-Butylthio)ethyl!borate borane adduct (1:3)] | 6.4
11 | [BH3-][S+](CCOB(OCC[S+]([BH3-])CCC(C)C)OCC[S+]([BH3-])CCC(C)C)CCC(C)C (stereo not drawn) [9b] | 5.9
12 | [BH3-][S+](CC)CCOCCOB(OCCOCC[S+]([BH3-])CC)OCCOCC[S+]([BH3-])CC (stereo not drawn) [9c, tris 2-2-(Ethylthio)ethoxy!ethyl!borate borane adduct (1:3)] | 5.7
13 | [BH3-][S+](CCOCCOB(OCCOCC[S+]([BH3-])C(C)(C)C)OCCOCC[S+]([BH3-])C(C)(C)C)C(C)(C)C (stereo not drawn) [9d, tris 2-2-(tert-Butylthio)ethoxy!ethyl!borate borane adduct (1:3)] | 5.5
14 | [BH3-][S+](CCOCCOB(OCCOCC[S+]([BH3-])CCC(C)C)OCCOCC[S+]([BH3-])CCC(C)C)CCC(C)C (stereo not drawn) [9e, tris 2-2-(Isoamylthio)ethoxy!ethyl borate borane adduct (1:3)] | 5.0
15 | [BH3-][S+](CC)CCOCCOCCOB(OCCOCCOCC[S+]([BH3-])CC)OCCOCCOCC[S+]([BH3-])CC (stereo not drawn) [9f, tris 2-2-2-(Ethylthio)ethoxy!ethoxy!ethyl!borate borane adduct (1:3)] | 5.2
16 | [BH3-][S+](CCOCCOCCOB(OCCOCCOCC[S+]([BH3-])C(C)(C)C)OCCOCCOCC[S+]([BH3-])C(C)(C)C)C(C)(C)C (stereo not drawn) [9g, tris 2-2-2-(tert-Butylthio)ethoxy!ethoxy!ethyl!borate borane adduct (1:3)] | 4.2
17 | [BH3-][S+](CCOCCOCCOB(OCCOCCOCC[S+]([BH3-])CCC(C)C)OCCOCCOCC[S+]([BH3-])CCC(C)C)CCC(C)C (stereo not drawn) [9h, tris 2-2-2-(Isoamylthio)ethoxy!ethoxy!ethyl!borate borane adduct (1:3)] | 4.0
18 | [BH3-][S+](CCOC)CCOB(OCC[S+]([BH3-])CCOC)OCC[S+]([BH3-])CCOC (stereo not drawn) [9i, tris 2-(2-Methoxyethylthio)ethyl!borate borane adduct (1:3)] | 6.0

Experiment: not given
Details: prior art; cited from earlier work

Row | SMILES | solubility in water
19 | [BH3-][S+]1CCOCC1 [Borane-1,4-thioxane] | limited solubility in water
20 | CSC [dimethyl sulfide] | not soluble in water

Experiment: not given
Details: prior art; cited from earlier work
Remark: another data set of the same source

Row | SMILES | stability
21 | [BH3-][S+]1CCOCC1 [Borane-1,4-thioxane] | stable over prolonged periods
22 | [BH3-][S+](C)C [Borane-methyl sulfide] | much more stable than borane-tetrahydrofuran
23 | [BH3-][O+]1CCCC1 [Borane-tetrahydrofuran] | unstable over a period of time

Experiment: not given
Details: in BH3; liquid; prior art; cited from earlier work

Row | SMILES | borane concentration [M]
24 | [BH3-][S+]1CCOCC1 [Borane-1,4-thioxane] | 8

From patent publication US5504240A, “Borane-hydroxydialkylsulfide borates” (Aldrich Chemical Company, Inc., priority 1995, dated 1996)
